Measured values as given in patent US20240010729A1, “COMBINATION THERAPY OF A PD-1 ANTAGONIST AND LAG3 ANTAGONIST AND LENVATINIB OR A PHARMACEUTICALLY ACCEPTABLE SALT THEREOF FOR TREATING PATIENTS WITH CANCER” (MERCK SHARP & DOHME LLC, priority 2020, published 2024).

Experiments:
CT26 colorectal model = test: CT26 mouse syngeneic tumor model (tumor growth inhibition, survival); conditions: CT26, Day 17; lenvatinib 10 mg/kg oral QD, antibodies 10 mg/kg i.p. every 5 days
Source text: Prior to treatment initiation, female BALB/c mice (for CT26 study) or C57BL/6J mice (for KPC-2838c3 study) aged 8 weeks weighing between 18 to 21 grams were anesthetized and subcutaneously injected into the rear flank with 0.3×10^6 CT26 or 0.5×10^6 KPC-2838c3 log-phase sub-confluent cells. When the mean tumor volume of inoculated animals reached approximately 100 mm^3 (II days later for CT26, 15 days later for KPC-2838c3) mice were pair-matched into 8 treatment groups consisting of 10 mice per group. Treatment groups consisted of: 1) 0.5% methylcellulose (Vehicle)+Isotype mouse IgG1 antibody (migG1); 2) Vehicle+anti-PD-1 mIgG1 antibody (muDX400); 3) Vehicle+anti-LAG3 mIgG1 antibody (28G10); 4) Lenvatinib+isotype; 5) Vehicle+anti-PD-1+anti-LAG3; 6) Lenvatinib+anti-PD-1; 7) Lenvatinib+anti-LAG3; 8) Lenvatinib+anti-PD-1+anti-LAG3. Vehicle and lenvatinib were orally gavage-dosed once daily (QD) at 10 mg/kg body weight. Isotype control, a mouse monoclonal antibody specific for adenoviral hexon of the isotype IgG1, as well as anti-PD-1 and anti-LAG3 antibodies were dosed intraperitoneally every 5 days at 10 mg/kg body weight. Start of treatments was considered Day 0 and dosing based on schedules continued as described until Day 35. Caliper measurements of tumors and body weights were captured twice weekly. […]

[1] = tested on: mCRC that is non MSI-H/pMMR; conditions: third line mCRC patients; cited from earlier work

Structure (SMILES)	TGI (tumor growth inhibition) respective to Vehicle-treated animals (CT26 colorectal model) [%]	6-month PFS rate [1] [%]
COc1cc2nccc(Oc3ccc(NC(=O)NC4CC4)c(Cl)c3)c2cc1C(N)=O [Lenvatinib, 4-[3-chloro-4-(cyclopropylaminocarbonyl)aminophenoxy]-7-methoxy-6-quinolinecarboxamide]	54	
CNC(=O)c1cc(Oc2ccc(NC(=O)Nc3ccc(Cl)c(C(F)(F)F)c3)c(F)c2)ccn1 [regorafenib]		~15
